Experimental data: PubChem BioAssay (NCI)
Values joined by “and” are separate entries in the source; they are usually repeats but may differ in a detail not shown here. Equal entries are not always repeated.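 Dose response: 5 concentrations. Exposure: 48 h. Format: 96-well plates. Endpoint: linear interpolation; highest concentration if not reached. Abbreviation: GI50, concentration required for 50% inhibition of growth. TGI denotes the concentration required for complete inhibition of growth.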

Tests used:
Test in all cases: inhibition of tumour cell growth, NCI panel, 48 h
IGROV1 ovarian = system: IGROV1 ovarian
MALME-3M melanoma = system: MALME-3M melanoma
SNB-19 CNS = system: SNB-19 CNS
SNB-75 CNS = system: SNB-75 CNS
MDA-MB-231 breast = system: MDA-MB-231 breast
SK-OV-3 ovarian = system: SK-OV-3 ovarian
K-562 leukemia = system: K-562 leukemia
SK-MEL-5 melanoma = system: SK-MEL-5 melanoma
A498 renal = system: A498 renal
UACC-257 melanoma = system: UACC-257 melanoma

Compound | GI50 (IGROV1 ovarian) | TGI (IGROV1 ovarian) | GI50 (MALME-3M melanoma) | TGI (MALME-3M melanoma) | GI50 (SNB-19 CNS) | TGI (SNB-19 CNS) | GI50 (SNB-75 CNS) | TGI (SNB-75 CNS) | GI50 (MDA-MB-231 breast) | TGI (MDA-MB-231 breast) | GI50 (SK-OV-3 ovarian) | TGI (SK-OV-3 ovarian) | GI50 (K-562 leukemia) | TGI (K-562 leukemia) | GI50 (SK-MEL-5 melanoma) | TGI (SK-MEL-5 melanoma) | GI50 (A498 renal) | TGI (A498 renal) | GI50 (UACC-257 melanoma) | TGI (UACC-257 melanoma)
COc1ccc(/C=c2\sc3n(c2=O)C2C(NN=3)N(C)C(=O)N2C)cc1 (stereo not given) | 1.32 µM | > 100 µM | 1.19 µM | > 100 µM | 1.3 µM | > 100 µM | 1.17 µM | 6.77 µM | 2.77 µM | > 100 µM | 2.13 µM | > 100 µM | 0.331 µM | > 100 µM | 0.66 µM | > 100 µM | 0.113 µM | 1.49 µM | > 100 µM | > 100 µM
Nc1nc(N)c(C=Nc2ccc(Br)cc2)c(Nc2ccc(Br)cc2)n1 | 8.72 µM | 46.2 µM | 17.8 µM | 39.7 µM | 12.4 µM | 32.4 µM | 5.02 µM | 18.6 µM | 7.36 µM | 28.3 µM | 15.1 µM | 28.4 µM | 2.91 µM | 8.68 µM | 13.5 µM | 26.3 µM | 10.6 µM | 22.4 µM | 14.7 µM | 30.7 µM
S=C(Nc1ccc(N=Nc2ccccc2)cc1)SCc1ccccc1 |  | 32.6 µM |  | 22.9 µM |  | 39.4 µM |  | 44.2 µM |  | 28.9 µM |  | 98 µM |  | 39.9 µM |  | 29.6 µM |  | 43.7 µM |  | 33.3 µM
CC(=O)OC1=CC2=CC[C@H]3[C@@H]4CCC(=O)[C@@]4(C)CC(=O)[C@]3(S)[C@@]2(C)CC1 |  | > 100 µM |  | 57.2 µM |  | > 100 µM |  | > 100 µM |  | 66.8 µM |  | > 100 µM |  | 76.7 µM |  | > 100 µM |  | > 100 µM |  | 79.6 µM
CC1=C(/C=C/C(C)=C/C=C/C(C)=C/C=N/NC(=S)NC(=S)N/N=C/C=C(C)/C=C/C=C(C)/C=C/C2=C(C)CCCC2(C)C)C(C)(C)CCC1 | 1.33 µM and 0.943 µM | 6.15 µM and 2.87 µM | 1.19 µM and 0.882 µM | 5.91 µM and 2.63 µM | 5.25 µM and 4.15 µM | 11.6 µM and 12 µM | 2.06 µM and 1.16 µM | 6.75 µM and 3.28 µM | 3.99 µM and 3.67 µM | 11 µM and 10.6 µM | 6.79 µM and 5.51 µM | 14 µM and 12.3 µM | 1.96 µM and 1.29 µM | 8.62 µM and 6.63 µM | 1.55 µM and 1.56 µM | 5.03 µM and 6.03 µM | 6.57 µM and 1.36 µM | 13 µM and 5.83 µM | 5.49 µM and 3.64 µM | 12 µM and 9.82 µM
COc1ccc2c(C3(c4cn(C)c5cc(OC)ccc45)C(=O)Nc4ccc(Cl)cc43)cn(C)c2c1 | 2.82 µM | > 100 µM | 3.62 µM | 57.6 µM | 5.81 µM | > 100 µM | 2.1 µM | > 100 µM | 1.53 µM | 5.1 µM | 5.07 µM | > 100 µM | 3.38 µM | > 100 µM | 4.26 µM | 20.8 µM | 4.5 µM | 88.7 µM | 2.29 µM | 8.56 µM
CC1=CC(=O)C(C(C)C)=CC1=Nc1cc(Br)c(O)c(Br)c1 | 4.68 µM | 20.2 µM | 14.1 µM | 33.4 µM | 9.95 µM | 26.1 µM | 4.22 µM | 21.6 µM | 3.65 µM | 12.9 µM | 3.45 µM | 15.9 µM | 3.92 µM | 13.4 µM | 3.15 µM | 10.7 µM | 3.81 µM | 19.6 µM | 14.7 µM | 33.1 µM
